Measured values taken from PubChem BioAssay (NCI).
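Exposure lasted 48 hours, with cells grown in 96-well plates and compounds tested at five concentrations. GI50 is the concentration that inhibits growth by half. TGI: total growth inhibition.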

Assays:
Assay in all cases: inhibition of tumour cell growth, NCI panel, 48 h
A549 NSCLC = tested on: A549 NSCLC
CAKI-1 renal = tested on: CAKI-1 renal
DU-145 prostate = tested on: DU-145 prostate
HCT-15 colon = tested on: HCT-15 colon
IGROV1 ovarian = tested on: IGROV1 ovarian
LOX IMVI melanoma = tested on: LOX IMVI melanoma
MDA-MB-435 = tested on: MDA-MB-435
RXF 393 renal = tested on: RXF 393 renal
HCC-2998 colon = tested on: HCC-2998 colon
T-47D breast = tested on: T-47D breast
BT-549 breast = tested on: BT-549 breast

Compound | TGI (A549 NSCLC) [µM] | TGI (CAKI-1 renal) [µM] | TGI (DU-145 prostate) [µM] | TGI (HCT-15 colon) [µM] | TGI (IGROV1 ovarian) [µM] | TGI (LOX IMVI melanoma) [µM] | TGI (MDA-MB-435) [µM] | TGI (RXF 393 renal) [µM] | TGI (HCC-2998 colon) [µM] | TGI (T-47D breast) [µM] | TGI (BT-549 breast) [µM] | GI50 (A549 NSCLC) [µM] | GI50 (BT-549 breast) [µM] | GI50 (HCT-15 colon) [µM] | GI50 (LOX IMVI melanoma) [µM] | GI50 (T-47D breast) [µM] | GI50 (CAKI-1 renal) [µM] | GI50 (HCC-2998 colon) [µM] | GI50 (IGROV1 ovarian) [µM] | GI50 (RXF 393 renal) [µM]
N#Cc1nc(Cc2cccs2)oc1N | > 100 | > 100 | > 100 | > 100 | > 100 | > 100 | > 100 | > 100 |  |  |  |  |  |  |  |  |  |  |  | 
c1csc(-c2csc(-c3cccs3)c2)c1 | > 100 | > 100 | > 100 | > 100 | > 100 | > 100 | > 100 | 74 | > 100 | > 100 |  |  |  |  |  |  |  |  |  | 
CC(C)(C)OC(=O)N[C@@H](Cc1ccccc1)C(=O)N1CC[C@@H](C(=O)N2[C@H]3CC4CC[C@@]3(CS2(=O)=O)C4(C)C)N1 | > 100 | > 100 | > 100 | > 100 |  | > 100 | > 100 | > 100 | > 100 | 51.1 | > 100 |  |  |  |  |  |  |  |  | 
CC1(C)CN=C(c2ccc3ccccc3c2O)N1 | > 100 | > 100 | > 100 | > 100 | > 100 | > 100 | > 100 |  | > 100 | > 100 | > 100 |  |  |  |  |  |  |  |  | 
COC(=O)C[C@H]1[C@]2(C)C3=C(C)[C@H](c4ccoc4)CC3O[C@@H]2[C@@H]2OC(=O)[C@]3(C)CCC(=O)[C@@]1(C)[C@@H]23 (stereo partly drawn) | > 100 | > 100 | > 100 | > 100 | > 100 | > 100 | > 100 | > 100 |  | > 100 | > 100 |  |  |  |  |  |  |  |  | 
CN(NC(=O)/C(=C/C=C/c1ccccc1)NC(=O)c1ccccc1)C1=C(Cl)C(=O)[N+](c2ccccc2)=CC1 | 93.8 | > 100 | > 100 | 62.8 | 46.8 | 32.3 | 32.9 | 53.8 |  | 38.8 | 49.6 |  |  |  |  |  |  |  |  | 
Cc1cccc(/C=N/NC(=S)NC(C)(C)C)n1 | > 100 | > 100 | > 100 | > 100 | > 100 | > 100 | > 100 |  | > 100 | > 100 | > 100 |  |  |  |  |  |  |  |  | 
CC(=O)N/N=C1\NN(C(C)=O)C2(S1)C(=O)Nc1ccccc12 (stereo not drawn) |  | > 100 | > 100 | > 100 | > 100 | > 100 | > 100 |  | > 100 | > 100 |  |  |  |  |  |  |  |  |  | 
CCCCCCCCCC[C@@H](O)[C@H]1CC[C@@H]([C@H]2CC[C@H]([C@H](O)CCCCCCCCCC[C@@H]3CC(CC(C)=O)C(=O)O3)O2)O1 (stereo partly drawn) | > 100 | > 100 |  | > 100 | > 100 | 27.3 | > 100 | 24.8 | 62.5 | 69.4 |  | 14.3 | 23.7 | 20.9 | 0.152 | 2.99 |  |  |  | 
C=C1C[C@]23CC[C@@H]4C(CO)(CO)CC(=O)C[C@]4(C)[C@@H]2C(O)C[C@H]1C3 (stereo partly drawn) | > 100 | > 100 | > 100 | > 100 | > 100 | > 100 | > 100 |  | > 100 |  | > 100 |  |  |  |  |  |  |  |  | 
O=C(O)C1(Cc2ccc3c(c2)CCC3)Cc2cc3c(cc2C1)CCC3 | > 100 |  | > 100 | > 100 | > 100 | > 100 | > 100 |  | > 100 |  | > 100 |  |  |  |  |  |  |  |  | 
COc1ccc(C2=C(N)c3ccccc3C2=O)cc1 | > 100 | > 100 | > 100 | > 100 | > 100 | > 100 | > 100 |  | > 100 | > 100 | > 100 |  |  |  |  |  |  |  |  | 
COc1cccc(C2c3cc4c(cc3OC(N3CCOCC3)C2C)OCO4)c1 (stereo not drawn) | 51.9 |  | > 100 | > 100 | > 100 | 18.1 |  |  |  | > 100 | 22.4 |  |  |  |  |  |  |  |  | 
Cc1ccc(N=Nc2cc(=O)[nH]c(=O)[nH]2)cc1C | 34.7 |  | 27.9 | 11.2 | 26.9 | 3.36 | 26.8 | 24.9 | 19.9 |  | 26.6 |  |  |  |  |  |  |  |  | 
COc1cc(/C=C/C=C2\CC(C)C/C(=C\C=C\c3ccc(O)c(OC)c3)C2=O)ccc1O (stereo not drawn) | > 100 | 33.2 | > 100 | > 100 | 20.8 | 65.1 | 41 |  | > 100 | > 100 | 27.3 |  |  |  |  |  |  |  |  | 
CC(=O)Oc1ccc(-c2c(OC(C)=O)c(OC(C)=O)c(-c3ccc(OC(C)=O)c(OC(C)=O)c3)c(OC(C)=O)c2OC(C)=O)cc1 | 37.8 | 51.6 | 29.8 | 37.3 | 28.8 | 31.8 | 31.7 | 36.1 |  | 29.2 |  |  |  |  |  |  |  |  |  | 
Cc1cccc(-c2cc(=O)c3c(C)ccnc3[nH]2)c1 | > 100 | > 100 | > 100 | > 100 | > 100 | > 100 |  | > 100 | 11.1 | > 100 | > 100 |  |  |  |  |  |  |  |  | 
COc1cccc2c1C(=O)c1c(O)c3c(c(O)c1C2=O)C[C@](O)(C(=O)CO)CC3OC1CC(N)C(OC2CCCCO2)C(C)O1 (stereo partly drawn) | 13.3 | 18.2 |  | 5.14 | 11.4 | 1.66 |  | 1.87 | 3.25 |  |  |  |  |  |  |  |  |  |  | 
CN(CCc1ccccn1)C(=S)N/N=C/c1ccccn1 | 3.75 | 17.2 | > 100 | 35.6 | 1.21 | 13.6 | 38.1 | 2.98 | 37.7 | 22.2 |  |  |  |  |  |  |  |  |  | 
Cn1c(=O)n2n(c1=O)C1C(=CC2)C2C=CC1n1c(=O)n(C)c(=O)n12 (stereo not drawn) | > 100 | > 100 | > 100 | > 100 | > 100 | > 100 | > 100 | > 100 |  | > 100 | > 100 |  |  |  |  |  |  |  |  | 
CCC[CH2][Ge]([CH2]CCC)([CH2]CCC)[O]C(=O)CCl | 17.3 | 20.3 |  | 11.5 | 18.4 | 3.52 |  | 3.56 | 7.63 |  |  | 1.01 |  | 0.546 | 1.16 |  | 5.26 | 1.32 | 3.27 | 0.612
